# Data reported in patent publication US20080234286A1 (CHEMAGIS Ltd., priority 2007, published 2008).
# Counter-ions that a name gives are not always drawn.
# What was measured:
# Type in all cases: physicochemical
# [1] = Water content by Karl Fischer titration
# Description: The water content measurements were carried out using a Karl Fischer Titrator (Mettler Toledo Model DL-53), according to standard procedures.
# [2] = Physical nature / hygroscopicity of the obtained solid (observation); conditions: as obtained after drying
# [3] = Bulk and tapped density (Vankel tapped density tester)
# Description: Bulk and tapped densities were measured using Varian's Vankel tapped density tester model 50-2300.
# [4] = Storage stability of packed compressed tablets (amorphous form, purity by HPLC)
# Excerpt: The term “remains stable”, as defined herein, refers to lack of formation of impurities, while being stored as described herein (see Example 11).
# The compressed tablets were packed in a packing comprising internal sealed polyethylene bag, containing the tablets, which was inserted into a middle opaque (e.g., black) polyethylene bag, which was then sealed, wherein the packaging was sealed effectively to prevent penetration of humidity and/or oxygen. The polyethylene bag was packed and sealed in a laminated aluminum bag containing silica.
# The samples were packed in the above-mentioned packaging and stored at room temperate and at 40° C. Samples were withdrawn periodically after 5, 8, 13 and 30 days and the purity of the withdrawn material was checked by HPLC.
# [5] = Retention of amorphous form after compressing at high pressure, checked by X-ray diffractometer; conditions: about 7.5 tons/cm^2 for 15 minutes
# Description: X-ray diffraction data were acquired using a PHILIPS X-ray diffractometer model PW1050-70. System description: Kα1=1.54178 Å, voltage 40 kV, current 28 mA, diversion slit=1°, receiving slit=0.2 mm, scattering slit=1° with a Graphite monochromator. Measurements of 2θ values typically are accurate to within ±0.2 degrees. Experiment parameters: pattern measured between 2θ=3° and 2θ=30° with 0.05° increments; count time was 0.5 second per increment. […]
# The four samples, marked as 1-4, were checked by X-ray diffractometer after compressing and the results are detailed in Table 5.
SMILES,% water in the product [1] [%],also measured
"Cc1ccc(NC(=O)c2ccc(CN3CCN(C)CC3)cc2)cc1Nc1nccc(-c2cccnc2)n1 [Example 1, imatinib mesylate]",4.1,"physical nature of the obtained solid (hygroscopicity, flow) [2]: non-hygroscopic and free-flowing"
"Cc1ccc(NC(=O)c2ccc(CN3CCN(C)CC3)cc2)cc1Nc1nccc(-c2cccnc2)n1 [Example 2, imatinib mesylate]",,bulk density [3]: 0.29 g/mL; tapped density [3]: 0.39 g/mL
"Cc1ccc(NC(=O)c2ccc(CN3CCN(C)CC3)cc2)cc1Nc1nccc(-c2cccnc2)n1 [Example 3, imatinib mesylate]",4.1,
"Cc1ccc(NC(=O)c2ccc(CN3CCN(C)CC3)cc2)cc1Nc1nccc(-c2cccnc2)n1 [Example 4, imatinib mesylate]",3.7,
"Cc1ccc(NC(=O)c2ccc(CN3CCN(C)CC3)cc2)cc1Nc1nccc(-c2cccnc2)n1 [Example 5, imatinib mesylate]",4.8,
"Cc1ccc(NC(=O)c2ccc(CN3CCN(C)CC3)cc2)cc1Nc1nccc(-c2cccnc2)n1 [Example 6, imatinib mesylate]",3.8,
"Cc1ccc(NC(=O)c2ccc(CN3CCN(C)CC3)cc2)cc1Nc1nccc(-c2cccnc2)n1 [amorphous imatinib mesylate, imatinib mesylate]",,stability and amorphous form on storage ([4]; stored at 25° C. for at least a month): remains stable and maintains its amorphous form; stability and amorphous form on storage ([4]; stored at 40° C. for at least a month): remains stable and maintains its amorphous form; solid form after being compressed [5]: remains in amorphous form

# The next lines start with results.
% water in the product [1] [%],SMILES,also measured
4.3,"Cc1ccc(NC(=O)c2ccc(CN3CCN(C)CC3)cc2)cc1Nc1nccc(-c2cccnc2)n1 [Example 7, imatinib mesylate]",
3.8,"Cc1ccc(NC(=O)c2ccc(CN3CCN(C)CC3)cc2)cc1Nc1nccc(-c2cccnc2)n1 [Example 8, imatinib mesylate]",
4.9,"Cc1ccc(NC(=O)c2ccc(CN3CCN(C)CC3)cc2)cc1Nc1nccc(-c2cccnc2)n1 [Example 9, imatinib mesylate]",
3.2,"Cc1ccc(NC(=O)c2ccc(CN3CCN(C)CC3)cc2)cc1Nc1nccc(-c2cccnc2)n1 [Example 10, imatinib mesylate]",
2.2,"Cc1ccc(NC(=O)c2ccc(CN3CCN(C)CC3)cc2)cc1Nc1nccc(-c2cccnc2)n1 [Reference Example 1, imatinib mesylate, reference compound]","physical nature of the obtained solid (hygroscopicity, flow) [2]: glassy deliquescent material"
1.7,"Cc1ccc(NC(=O)c2ccc(CN3CCN(C)CC3)cc2)cc1Nc1nccc(-c2cccnc2)n1 [Reference Example 2, imatinib mesylate, reference compound]","physical nature of the obtained solid (hygroscopicity, flow) [2]: very electrostatic and tended to agglomerate"
